Experimental data: the supplement of paper PMC12076712

Legend:
Test in all cases: pIC50, kinobeads binding competition
ACVR2A = ACVR2A (UniProt P27037); conditions: cell material: Lysate mix
How it was run: (§1)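 Live Jurkat cells were treated with nine compound concentrations (top 30 μM, 1:4 steps) or DMSO for 60 min at 37 °C before lysis. Alternatively, Jurkat lysate or a 1:1:1:1 HEK293/K-562/HepG2/placenta lysate mix was incubated with nine concentrations (top 30 μM, 1:5 steps) for 60 min at 4 °C. Kinobeads-bound proteins were digested and quantified by TMT10 LC-MS/MS. pIC50 came from logistic dose-response fits (R drc package) of fold changes versus DMSO, in biological duplicates.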

BMX = target: T1, BMX (UniProt P51813); conditions: cell material: Lysate mix
T1 sequence (whole entry): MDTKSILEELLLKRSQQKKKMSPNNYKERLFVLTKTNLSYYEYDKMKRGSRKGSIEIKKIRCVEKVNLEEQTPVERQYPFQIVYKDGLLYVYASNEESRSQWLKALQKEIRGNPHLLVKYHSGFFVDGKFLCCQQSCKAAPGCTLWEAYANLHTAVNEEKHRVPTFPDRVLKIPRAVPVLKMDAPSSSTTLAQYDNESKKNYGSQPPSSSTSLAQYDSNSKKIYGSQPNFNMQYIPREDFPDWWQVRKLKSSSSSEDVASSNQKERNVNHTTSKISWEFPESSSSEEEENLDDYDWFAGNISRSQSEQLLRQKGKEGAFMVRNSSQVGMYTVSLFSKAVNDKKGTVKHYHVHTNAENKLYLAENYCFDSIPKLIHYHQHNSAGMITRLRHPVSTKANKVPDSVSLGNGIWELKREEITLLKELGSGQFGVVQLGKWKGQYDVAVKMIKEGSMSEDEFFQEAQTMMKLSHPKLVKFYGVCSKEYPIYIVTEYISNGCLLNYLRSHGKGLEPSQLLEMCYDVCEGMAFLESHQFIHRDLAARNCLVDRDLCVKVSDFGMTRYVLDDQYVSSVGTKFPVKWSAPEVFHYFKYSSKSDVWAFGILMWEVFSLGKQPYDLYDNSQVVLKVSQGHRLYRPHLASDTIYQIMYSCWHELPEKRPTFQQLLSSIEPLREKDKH
How it was run: as §1

TEC = target: T2, TEC (UniProt P42680)
T2 sequence (whole entry): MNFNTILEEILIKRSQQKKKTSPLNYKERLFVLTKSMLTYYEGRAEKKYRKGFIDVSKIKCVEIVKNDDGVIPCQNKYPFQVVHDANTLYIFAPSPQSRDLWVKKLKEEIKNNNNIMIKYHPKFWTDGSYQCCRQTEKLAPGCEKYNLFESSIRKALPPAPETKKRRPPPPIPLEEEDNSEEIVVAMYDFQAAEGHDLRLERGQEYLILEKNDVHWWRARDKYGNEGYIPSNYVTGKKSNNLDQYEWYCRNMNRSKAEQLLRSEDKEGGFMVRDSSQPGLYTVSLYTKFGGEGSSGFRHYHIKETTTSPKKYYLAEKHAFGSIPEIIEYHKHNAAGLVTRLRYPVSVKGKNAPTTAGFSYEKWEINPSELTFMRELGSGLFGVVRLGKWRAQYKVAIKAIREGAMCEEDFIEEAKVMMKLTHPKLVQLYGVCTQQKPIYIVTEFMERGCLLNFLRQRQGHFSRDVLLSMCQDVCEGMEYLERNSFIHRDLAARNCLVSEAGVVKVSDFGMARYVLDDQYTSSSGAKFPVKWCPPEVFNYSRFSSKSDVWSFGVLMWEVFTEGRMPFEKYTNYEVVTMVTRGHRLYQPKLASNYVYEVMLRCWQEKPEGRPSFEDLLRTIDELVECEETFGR
How it was run: as §1

UniProt O14965 = target: T3, UniProt O14965
T3 sequence (whole entry): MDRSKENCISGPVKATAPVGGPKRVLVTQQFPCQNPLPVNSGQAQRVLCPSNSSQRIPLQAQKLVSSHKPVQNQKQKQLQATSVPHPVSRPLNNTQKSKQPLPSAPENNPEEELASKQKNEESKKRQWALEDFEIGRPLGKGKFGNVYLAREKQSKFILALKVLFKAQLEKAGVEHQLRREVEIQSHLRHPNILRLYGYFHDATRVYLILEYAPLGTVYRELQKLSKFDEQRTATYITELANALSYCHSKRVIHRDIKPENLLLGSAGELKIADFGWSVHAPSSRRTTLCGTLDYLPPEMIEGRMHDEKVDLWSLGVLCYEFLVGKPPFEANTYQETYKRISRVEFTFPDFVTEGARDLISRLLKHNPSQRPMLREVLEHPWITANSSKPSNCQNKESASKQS
How it was run: as §1

UniProt O15111 = target: T4, UniProt O15111
T4 sequence (whole entry): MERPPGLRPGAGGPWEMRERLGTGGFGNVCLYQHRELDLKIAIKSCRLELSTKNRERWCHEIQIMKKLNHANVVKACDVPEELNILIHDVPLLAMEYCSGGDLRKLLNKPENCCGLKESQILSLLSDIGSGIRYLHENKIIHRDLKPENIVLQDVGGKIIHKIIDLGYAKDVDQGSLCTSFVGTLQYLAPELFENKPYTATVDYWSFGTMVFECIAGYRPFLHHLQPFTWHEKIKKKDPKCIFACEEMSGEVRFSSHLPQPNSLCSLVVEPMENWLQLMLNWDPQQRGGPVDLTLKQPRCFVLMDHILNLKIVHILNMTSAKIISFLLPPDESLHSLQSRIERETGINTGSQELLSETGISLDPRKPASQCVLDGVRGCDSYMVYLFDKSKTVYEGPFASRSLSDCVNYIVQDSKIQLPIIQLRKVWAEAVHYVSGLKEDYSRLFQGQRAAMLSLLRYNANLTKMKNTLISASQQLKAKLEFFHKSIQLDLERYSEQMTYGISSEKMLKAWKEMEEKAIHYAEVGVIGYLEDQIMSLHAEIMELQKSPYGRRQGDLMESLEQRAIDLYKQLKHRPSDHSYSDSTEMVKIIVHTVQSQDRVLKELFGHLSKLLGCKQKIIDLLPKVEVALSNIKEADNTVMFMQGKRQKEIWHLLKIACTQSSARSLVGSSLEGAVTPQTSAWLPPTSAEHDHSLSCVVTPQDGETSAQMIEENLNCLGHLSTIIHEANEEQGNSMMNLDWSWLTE
How it was run: as §1

UniProt Q16513 = target: UniProt Q16513
How it was run: as §1

Sequence of UniProt Q16513 (Q16513 whole entry, looked up): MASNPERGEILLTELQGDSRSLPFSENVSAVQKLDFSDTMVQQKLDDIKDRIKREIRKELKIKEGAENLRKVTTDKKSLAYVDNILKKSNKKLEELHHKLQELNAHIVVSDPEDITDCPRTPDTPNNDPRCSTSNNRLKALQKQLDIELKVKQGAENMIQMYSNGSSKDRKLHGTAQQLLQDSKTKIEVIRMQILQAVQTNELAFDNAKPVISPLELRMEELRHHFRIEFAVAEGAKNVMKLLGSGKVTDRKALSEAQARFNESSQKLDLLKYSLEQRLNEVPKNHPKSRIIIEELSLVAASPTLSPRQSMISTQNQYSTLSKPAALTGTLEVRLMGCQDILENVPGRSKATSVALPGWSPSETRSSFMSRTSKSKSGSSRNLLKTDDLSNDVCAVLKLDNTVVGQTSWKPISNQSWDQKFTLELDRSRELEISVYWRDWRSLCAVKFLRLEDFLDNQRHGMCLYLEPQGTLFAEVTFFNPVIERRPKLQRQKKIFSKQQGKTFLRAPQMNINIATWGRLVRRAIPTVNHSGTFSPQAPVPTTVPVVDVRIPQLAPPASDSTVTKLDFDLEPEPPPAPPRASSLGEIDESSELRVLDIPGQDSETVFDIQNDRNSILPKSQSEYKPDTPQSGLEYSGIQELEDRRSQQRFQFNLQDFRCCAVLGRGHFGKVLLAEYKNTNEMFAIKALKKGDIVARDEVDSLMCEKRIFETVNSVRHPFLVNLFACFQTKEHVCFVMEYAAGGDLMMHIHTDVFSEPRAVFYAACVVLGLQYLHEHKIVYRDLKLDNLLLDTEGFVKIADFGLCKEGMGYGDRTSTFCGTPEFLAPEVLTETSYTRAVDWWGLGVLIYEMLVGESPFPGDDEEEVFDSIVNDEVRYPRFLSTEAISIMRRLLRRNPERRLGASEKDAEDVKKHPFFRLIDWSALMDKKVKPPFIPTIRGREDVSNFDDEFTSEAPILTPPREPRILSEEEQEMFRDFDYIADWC
Sequence of ACVR2A (P27037 whole entry): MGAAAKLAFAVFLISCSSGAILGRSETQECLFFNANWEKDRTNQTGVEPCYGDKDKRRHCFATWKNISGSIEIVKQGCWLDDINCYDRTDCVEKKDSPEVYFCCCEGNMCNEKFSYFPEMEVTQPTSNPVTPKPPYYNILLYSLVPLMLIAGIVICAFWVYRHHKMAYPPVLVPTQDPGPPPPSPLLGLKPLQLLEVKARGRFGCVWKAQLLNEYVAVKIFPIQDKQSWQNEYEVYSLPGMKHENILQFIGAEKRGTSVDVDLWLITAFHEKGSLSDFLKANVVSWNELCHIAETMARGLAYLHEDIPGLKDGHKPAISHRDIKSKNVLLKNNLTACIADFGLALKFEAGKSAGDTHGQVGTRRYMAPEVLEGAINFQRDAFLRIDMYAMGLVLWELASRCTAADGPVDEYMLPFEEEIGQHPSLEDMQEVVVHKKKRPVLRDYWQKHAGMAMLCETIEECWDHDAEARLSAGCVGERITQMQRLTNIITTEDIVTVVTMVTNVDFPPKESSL

| pIC50 (ACVR2A) | pIC50 (BMX) | pIC50 (TEC; cell material: Lysate mix) | pIC50 (UniProt O14965; cell material: Lysate mix) | pIC50 (UniProt O15111; cell material: Lysate mix) | pIC50 (UniProt Q16513; cell material: Lysate mix) | SMILES | pIC50 (TEC; cell material: Jurkat cells) | pIC50 (TEC; cell material: Jurkat lysate) | pIC50 (UniProt O14965; cell material: Jurkat cells) | pIC50 (UniProt O14965; cell material: Jurkat lysate) | pIC50 (UniProt O15111; cell material: Jurkat cells) | pIC50 (UniProt O15111; cell material: Jurkat lysate) | pIC50 (UniProt Q16513; cell material: Jurkat lysate) | pIC50 (UniProt Q16513; cell material: Jurkat cells) |
| --- | --- | --- | --- | --- | --- | --- | --- | --- | --- | --- | --- | --- | --- | --- |
| < 4.52 | < 4.52 | < 4.52 | 5.3 | < 4.52 | < 4.52 | O=C(NCCNC(=O)c1cc(Nc2cc(C3CC3)[nH]n2)nc(N2CCN(Cc3ccc(S(=O)(=O)F)cc3)CC2)n1)OC1CC/C=C/CCC1 (stereo unspecified) | 4.8 | < 4.52 | 6.98 | 5 | < 4.52 | < 4.52 | < 4.52 |  |
| < 4.52 | < 4.52 | < 4.52 | 5.39 | < 4.52 | < 4.52 | Cc1cc(Nc2cc(C(=O)NCCNC(=O)OC3CC/C=C/CCC3)nc(N3CCN(Cc4ccc(S(=O)(=O)F)cc4)CC3)n2)n[nH]1 (stereo unspecified) |  |  |  |  |  |  |  |  |
| < 4.52 | < 4.52 | < 4.52 | 7.67 | < 4.52 | < 4.52 | CCNC(=O)c1cc(Nc2cc(C)[nH]n2)nc(N2CCN(Cc3ccc(S(=O)(=O)F)cc3)CC2)n1 |  |  |  |  |  |  |  |  |

Continued, compound first:

| SMILES | pIC50 (ACVR2A) | pIC50 (BMX) | pIC50 (TEC; cell material: Lysate mix) | pIC50 (UniProt O14965; cell material: Lysate mix) | pIC50 (UniProt O15111; cell material: Lysate mix) | pIC50 (UniProt Q16513; cell material: Lysate mix) | pIC50 (TEC; cell material: Jurkat cells) | pIC50 (TEC; cell material: Jurkat lysate) | pIC50 (UniProt O14965; cell material: Jurkat cells) | pIC50 (UniProt O14965; cell material: Jurkat lysate) | pIC50 (UniProt O15111; cell material: Jurkat cells) | pIC50 (UniProt O15111; cell material: Jurkat lysate) | pIC50 (UniProt Q16513; cell material: Jurkat lysate) | pIC50 (UniProt Q16513; cell material: Jurkat cells) |
| --- | --- | --- | --- | --- | --- | --- | --- | --- | --- | --- | --- | --- | --- | --- |
| CCNC(=O)c1cc(Nc2cc(C3CC3)[nH]n2)nc(N2CCN(Cc3ccc(S(=O)(=O)F)cc3)CC2)n1 | < 4.52 | < 4.52 | < 4.52 | 6.86 | < 4.52 | < 4.52 |  |  |  |  |  |  |  |  |
| C#CCNC(=O)c1cc(Nc2cc(C3CC3)[nH]n2)nc(N2CCN(Cc3ccc(S(=O)(=O)F)cc3)CC2)n1 | < 4.52 | < 4.52 | < 4.52 | 7.06 | < 4.52 | < 4.52 | 5.88 | < 4.52 | 7.04 | 6.25 | < 4.52 | < 4.52 | < 4.52 | 5.32 |
| C#CCNC(=O)c1cc(Nc2cc(C)[nH]n2)nc(N2CCN(Cc3ccc(S(=O)(=O)F)cc3)CC2)n1 | < 4.52 | < 4.52 | < 4.52 | 6.73 | < 4.52 | < 4.52 |  |  |  |  |  |  |  |  |
